Source: ChEMBL document CHEMBL1131216, “Anhydrolide macrolides. 2. Synthesis and antibacterial activity of 2,3-anhydro-6-O-methyl 11,12-carbazate erythromycin A analogues” (1998)
In brackets after ≈: the same amount, converted by molar mass.

How the values were obtained:
Type in all cases: functional
[1] = system: Staphylococcus aureus; experiment: In vitro antibacterial activity of 6538P strain of Gram positive bacteria Staphylococcus aureus
[2] = system: Streptococcus pyogenes; experiment: In vitro antibacterial activity of PIU2584 strain of Gram positive bacteria Streptococcus pyogenes
[3] = system: Streptococcus pneumoniae; experiment: In vitro antibacterial activity of ATCC 6303 strain of Gram positive bacteria Streptococcus pneumoniae
[4] = system: Staphylococcus aureus; experiment: In vitro antibacterial activity of A-5278 strain of Gram positive bacteria Staphylococcus aureus
[5] = system: Streptococcus pyogenes; experiment: In vitro antibacterial activity of EES61 strain of Gram positive bacteria Streptococcus pyogenes
[6] = system: Streptococcus pneumoniae; experiment: In vitro antibacterial activity of 5979 strain of Gram positive bacteria Streptococcus pneumoniae
[7] = system: Haemophilus influenzae; experiment: In vitro antibacterial activity of DILL strain of Gram negative bacteria Haemophilus influenzae
[8] = system: Streptococcus pneumoniae; experiment: In vitro antibacterial activity of 5649 strain of Gram positive bacteria Streptococcus pneumoniae
[9] = system: Staphylococcus aureus; experiment: In vitro antibacterial activity of A5177 strain of Gram positive bacteria Staphylococcus aureus
[10] = system: Streptococcus pyogenes; experiment: In vitro antibacterial activity of 930 strain of Gram positive bacteria Streptococcus pyogenes

MIC [1] [µg/mL]	MIC [2] [µg/mL]	MIC [3] [µg/mL]	MIC [4] [µg/mL]	MIC [5] [µg/mL]	MIC [6] [µg/mL]	MIC [7] [µg/mL]	MIC [8] [µg/mL]	MIC [9] [µg/mL]	MIC [10] [µg/mL]	Compound
0.2 (≈ 0.272 µM)	1 (≈ 1.36 µM)	0.06 (≈ 0.0815 µM)	100 (≈ 136 µM)	0.03 (≈ 0.0407 µM)	32 (≈ 43.5 µM)	16 (≈ 21.7 µM)	1 (≈ 1.36 µM)	0.2 (≈ 0.272 µM)	32 (≈ 43.5 µM)	CC[C@H]1OC(=O)/C(C)=C/[C@H](C)[C@@H](O[C@@H]2O[C@H](C)C[C@H](N(C)C)[C@H]2O)[C@@](C)(OC)C[C@@H](C)C(=O)[C@H](C)[C@H]2N(NCc3ccc(Cl)cc3)C(=O)O[C@]12C
0.2 (≈ 0.262 µM)	1 (≈ 1.31 µM)	0.125 (≈ 0.164 µM)	50 (≈ 65.4 µM)	0.03 (≈ 0.0392 µM)	32 (≈ 41.9 µM)	16 (≈ 20.9 µM)	1 (≈ 1.31 µM)	0.2 (≈ 0.262 µM)	16 (≈ 20.9 µM)	CC[C@H]1OC(=O)/C(C)=C/[C@H](C)[C@@H](O[C@@H]2O[C@H](C)C[C@H](N(C)C)[C@H]2O)[C@@](C)(OC)C[C@@H](C)C(=O)[C@H](C)[C@H]2N(NCCCc3ccccc3Cl)C(=O)O[C@]12C
0.1 (≈ 0.125 µM)	0.25 (≈ 0.314 µM)	0.004 (≈ 0.00502 µM)	> 100	0.008 (≈ 0.01 µM)	8 (≈ 10 µM)	1 (≈ 1.25 µM)	0.5 (≈ 0.627 µM)	0.05 (≈ 0.0627 µM)	2 (≈ 2.51 µM)	CC[C@H]1OC(=O)C(C)C(=O)[C@H](C)[C@@H](O[C@@H]2O[C@H](C)C[C@H](N(C)C)[C@H]2O)[C@@](C)(OC)C[C@@H](C)C(=O)[C@H](C)[C@H]2N(NCCCc3ccnc4ccccc34)C(=O)O[C@]12C (some centres undefined)
12.5 (≈ 17.2 µM)	8 (≈ 11 µM)	1 (≈ 1.37 µM)	50 (≈ 68.7 µM)	4 (≈ 5.49 µM)	16 (≈ 22 µM)	> 64	4 (≈ 5.49 µM)	6.2 (≈ 8.52 µM)	16 (≈ 22 µM)	CC[C@H]1OC(=O)/C(C)=C/[C@H](C)[C@@H](O[C@@H]2O[C@H](C)C[C@H](N(C)C)[C@H]2O)[C@@](C)(OC)C[C@@H](C)C(=O)[C@@H](C)[C@H]2N(NC/C=C/c3ccccc3)C(=O)O[C@]12C
0.05 (≈ 0.0688 µM)	0.5 (≈ 0.688 µM)	0.03 (≈ 0.0413 µM)	> 100	0.015 (≈ 0.0206 µM)	> 128	4 (≈ 5.5 µM)	0.5 (≈ 0.688 µM)	0.02 (≈ 0.0275 µM)	128 (≈ 176 µM)	CC[C@H]1OC(=O)/C(C)=C/[C@H](C)[C@@H](O[C@@H]2O[C@H](C)C[C@H](N(C)C)[C@H]2O)[C@@](C)(OC)C[C@@H](C)C(=O)[C@H](C)[C@H]2N(NCc3ccc(C#N)cc3)C(=O)O[C@]12C
0.39 (≈ 0.521 µM)	1 (≈ 1.34 µM)	0.06 (≈ 0.0802 µM)	50 (≈ 66.8 µM)	0.03 (≈ 0.0401 µM)	64 (≈ 85.6 µM)	16 (≈ 21.4 µM)	1 (≈ 1.34 µM)	0.2 (≈ 0.267 µM)	64 (≈ 85.6 µM)	CC[C@H]1OC(=O)/C(C)=C/[C@H](C)[C@@H](O[C@@H]2O[C@H](C)C[C@H](N(C)C)[C@H]2O)[C@@](C)(OC)C[C@@H](C)C(=O)[C@H](C)[C@H]2N(NCCCc3ccc(F)cc3)C(=O)O[C@]12C
0.2 (≈ 0.259 µM)	1 (≈ 1.3 µM)	0.004 (≈ 0.00519 µM)	> 100	0.004 (≈ 0.00519 µM)	> 128	8 (≈ 10.4 µM)	0.5 (≈ 0.649 µM)	0.2 (≈ 0.259 µM)	128 (≈ 166 µM)	CC[C@H]1OC(=O)/C(C)=C/[C@H](C)[C@@H](O[C@@H]2O[C@H](C)C[C@H](N(C)C)[C@H]2O)[C@@](C)(OC)C[C@@H](C)C(=O)[C@H](C)[C@H]2N(NCCCn3nc4ccccc4n3)C(=O)O[C@]12C
0.1 (≈ 0.129 µM)	0.5 (≈ 0.645 µM)	0.03 (≈ 0.0387 µM)	> 100	0.03 (≈ 0.0387 µM)	128 (≈ 165 µM)	8 (≈ 10.3 µM)	1 (≈ 1.29 µM)	0.01 (≈ 0.0129 µM)	64 (≈ 82.6 µM)	CC[C@H]1OC(=O)/C(C)=C/[C@H](C)[C@@H](O[C@@H]2O[C@H](C)C[C@H](N(C)C)[C@H]2O)[C@@](C)(OC)C[C@@H](C)C(=O)[C@H](C)[C@H]2N(NCCCc3ccccc3[N+](=O)[O-])C(=O)O[C@]12C
0.1 (≈ 0.131 µM)	0.25 (≈ 0.328 µM)	0.03 (≈ 0.0393 µM)	> 100	0.015 (≈ 0.0197 µM)	> 128	4 (≈ 5.24 µM)	0.25 (≈ 0.328 µM)	–	> 128	CC[C@H]1OC(=O)/C(C)=C/[C@H](C)[C@@H](O[C@@H]2O[C@H](C)C[C@H](N(C)C)[C@H]2O)[C@@](C)(OC)C[C@@H](C)C(=O)[C@H](C)[C@H]2N(NCc3cc([N+](=O)[O-])ccc3O)C(=O)O[C@]12C
0.2 (≈ 0.273 µM)	0.5 (≈ 0.683 µM)	0.03 (≈ 0.041 µM)	> 100	0.03 (≈ 0.041 µM)	> 128	4 (≈ 5.47 µM)	1 (≈ 1.37 µM)	0.2 (≈ 0.273 µM)	> 128	CC[C@H]1OC(=O)/C(C)=C/[C@H](C)[C@@H](O[C@@H]2O[C@H](C)C[C@H](N(C)C)[C@H]2O)[C@@](C)(OC)C[C@@H](C)C(=O)[C@H](C)[C@H]2N(NCc3ccccc3CO)C(=O)O[C@]12C
